Patent US20110251379A1, “COMPOUNDS USEFUL FOR TREATING NEURODEGENERATIVE DISORDERS” (Satori Pharmaceuticals, Inc., priority 2010, published 2011)
Like-named read-outs stand apart in the source and are kept apart here.

Key:
Type in all cases: cell-based
Aβ-40 = test: MSD Human (6E10) Ab 3-PLEX elisa, conditioned media of 2B7 cells: Aβ-40; conditions: for IC50: Aβ-40 (superscript b); for inhibition at 20 µM: Aβ-40, 20 μM
In short: (§1)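 Cells grown to confluence, washed, then exposed to diluted compound (1% DMSO) for 5 hours at 37° C. Collected media mixed 1:1 with blocking buffer and added to capture plates with detection antibody. After overnight incubation at 4 degrees C, wells washed and read on MSD imager.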

Aβ-42 = test: MSD Human (6E10) Ab 3-PLEX elisa, conditioned media of 2B7 cells: Aβ-42; conditions: for inhibition at 20 µM: Aβ-42, 20 μM; for IC50: Aβ-42 (superscript c)
In short: as §1

Aβ-38 = test: MSD Human (6E10) Ab 3-PLEX elisa, conditioned media of 2B7 cells: Aβ-38; conditions: for IC50: Aβ-38 (superscript a)
In short: as §1

[1] = Homo sapiens, read-out: 50% reduction value
[2] = Homo sapiens, read-out: IC50 range

Structure (SMILES) | IC50 (Aβ-40; [1]) [nM] | IC50 (Aβ-38; [1]) [nM] | inhibition at 20 µM (Aβ-40; Homo sapiens) [%] | IC50 (Aβ-40; [2]) [nM] | IC50 (Aβ-42; [1]) [nM] | IC50 (Aβ-42; [2]) [nM] | IC50 (Aβ-38; [2]) [nM] | other results
COC(=O)N(C)CC1C[C@@H](C)[C@H]2C(O1)[C@H](O)[C@@]1(C)C3CC[C@H]4C(C)(C)[C@@H](O)CC[C@@]45C[C@@]35CC[C@]21C (stereo partly drawn) | > 10000 | 1000 to 10000 | – | – | – | – | – | inhibition at 20 µM (Aβ-42; Homo sapiens): 25 to 75%
CC(C)CC(=O)OCC1C[C@@H](C)[C@H]2C(O1)[C@H](O)[C@@]1(C)C3CC[C@H]4C(C)(C)[C@@H](O[C@H]5CN(C6COC6)CCO5)CC[C@@]45C[C@@]35CC[C@]21C (stereo partly drawn) | – | 1000 to 10000 | 25 to 75 | – | – | – | – | inhibition at 20 µM (Aβ-42; Homo sapiens): 25 to 75%
CCO[C@@H]([C@H]1C[C@@H](C)[C@H]2[C@H](O1)[C@H](O)[C@@]1(C)[C@@H]3CC[C@H]4C(C)(C)[C@@H](OC(=O)N5CC(C(=O)O)C5)CC[C@@]45C[C@@]35CC[C@]21C)C(C)(C)O | 1000 to 10000 | < 1000 | – | 1000 to 10000 | < 1000 | < 1000 | < 1000 | –
CCO[C@@H]([C@H]1C[C@@H](C)[C@H]2[C@H](O1)[C@H](O)[C@@]1(C)C3CC[C@H]4C(C)(C)[C@@H](O[C@H]5CN(C6COC6)CCO5)CC[C@@]45C[C@@]35CC[C@]21C)C(C)(C)O (stereo partly drawn) | 1000 to 10000 | < 1000 | – | – | < 1000 | < 1000 | – | –
CC(C)C(=O)N1CCO[C@@H](O[C@H]2CC[C@]34C[C@]35CC[C@]3(C)C6C(OC(CN(C)C(=O)N(C)C)C[C@H]6C)[C@H](O)[C@@]3(C)C5CC[C@H]4C2(C)C)C1 (stereo partly drawn) | – | < 10000 | 25 to 75 | – | > 10000 | – | 1000 to 10000 | inhibition at 20 µM (Aβ-42; Homo sapiens): 25 to 75%
CO[C@@H](C1C[C@@H](C)[C@H]2C(O1)[C@H](O)[C@@]1(C)C3CC[C@H]4C(C)(C)C(OC(=O)NC5CN(C)C5)CC[C@@]45C[C@@]35CC[C@]21C)C(C)(C)O (stereo partly drawn) | 1000 to 10000 | < 1000 | – | 1000 to 10000 | < 1000 | < 1000 | 1000 to 10000 | –
CC(=O)O[C@@H]([C@H]1C[C@@H](C)C2C(O1)[C@H](O)[C@@]1(C)[C@@H]3CC[C@H]4C(C)(C)[C@@H](O)CC[C@@]45C[C@@]35CC[C@]21C)C(C)(C)O (stereo partly drawn) [drawing 1231] | – | 1000 to 10000 | 25 to 75 | – | 1000 to 10000 | – | – | –
CC1CC(C(OC(=O)C2CC2)C(C)(C)O)OC2C1C1(C)CCC34CC35CCC(OC3CN(C6COC6)CCO3)C(C)(C)C5CCC4C1(C)C2O (stereo not drawn) | – | – | – | – | – | – | – | IC50 (Aβ-40; read-out: 50% reduction value): 1000 to 10000 nM; IC50 (Aβ-42; read-out: 50% reduction value): 1000 to 10000 nM; IC50 (Aβ-38; read-out: 50% reduction value): 1000 to 10000 nM; IC50 (Aβ-38; read-out: IC50 range): < 1000 nM
CC(C)O[C@@H](C1C[C@@H](C)[C@H]2C(O1)[C@H](O)[C@@]1(C)C3CC[C@H]4C(C)(C)C(O[C@H]5CN(C6COC6)CCO5)CC[C@@]45C[C@@]35CC[C@]21C)C(C)(C)O (stereo partly drawn) | 1000 to 10000 | < 1000 | – | 1000 to 10000 | < 1000 | < 1000 | < 1000 | –
C[C@@H]1CC(C(O)C(C)(C)C)OC2[C@H]1[C@@]1(C)CC[C@@]34C[C@@]35CC[C@H](O[C@H]3CN(C6COC6)CCO3)C(C)(C)[C@@H]5CCC4[C@]1(C)[C@H]2O (stereo partly drawn) | < 1000 | < 1000 | – | < 1000 | 1000 to 10000 | < 1000 | < 1000 | –
CS[C@@H](C1C[C@@H](C)[C@H]2C(O1)[C@H](O)[C@@]1(C)C3CC[C@H]4C(C)(C)C(O)CC[C@@]45C[C@@]35CC[C@]21C)C(C)(C)O (stereo partly drawn) | > 10000 | < 1000 | – | – | 1000 to 10000 | – | – | –
CCO[C@@H](C1C[C@@H](C)[C@H]2C(O1)[C@H](O)[C@@]1(C)C3CC[C@H]4C(C)(C)C(OC(=O)NC5CCNC5=O)CC[C@@]45C[C@@]35CC[C@]21C)C(C)(C)O (stereo partly drawn) [drawing 1290] | – | – | – | – | – | – | < 1000 | IC50 (Aβ-40; read-out: 50% reduction value): 1000 to 10000 nM; IC50 (Aβ-40; read-out: IC50 range): > 10000 nM; IC50 (Aβ-42; read-out: 50% reduction value): < 1000 nM; IC50 (Aβ-42; read-out: IC50 range): < 1000 nM; IC50 (Aβ-38; read-out: 50% reduction value): < 1000 nM
COCC1C[C@@H](C)[C@H]2C(O1)[C@H](O)[C@@]1(C)[C@@H]3CC[C@H]4C(C)(C)C(O[C@H]5CN(C6COC6)CCO5)CC[C@@]45C[C@@]35CC[C@]21C (stereo partly drawn) | – | – | < 25 | – | – | – | – | inhibition at 20 µM (Aβ-42; Homo sapiens): < 25%; inhibition at 20 µM (Aβ-38; Homo sapiens, Aβ-38, 20 μM): < 25%
CC(=O)O[C@@H]([C@H]1C[C@@H](C)[C@H]2[C@H](O1)[C@H](O)[C@@]1(C)[C@@H]3CC[C@H]4C(C)(C)C(OC(N)=O)CC[C@@]45C[C@@]35CC[C@]21C)C(C)(C)O (stereo partly drawn) [drawing 1201] | – | < 1000 | 25 to 75 | – | < 1000 | < 1000 | < 1000 | –
C[C@@H]1CC(C(=O)O)OC2[C@H]1[C@@]1(C)CC[C@@]34C[C@@]35CC[C@H](OC3CN(C(=O)CC6CC6)CCO3)C(C)(C)[C@@H]5CCC4[C@]1(C)[C@H]2O (stereo partly drawn) | – | – | – | > 10000 | – | 1000 to 10000 | > 10000 | –
